Laboratory results from patent US20250381249A1, “COMBINATION TREATMENT FOR RESISTANT HYPERTENSION” (Mayo Foundation for Medical Education and Research, priority 2018, published 2025).

Columns and labels:
Format in all cases: in vivo, rat
SHR [1] = experiment: Acute study in SHR, neurohumoral analysis (plasma and urinary cGMP, aldosterone); conditions: Fs5 and Fs10, 60 minutes
Method: Rats were anesthetized in an induction chamber with inhaled Isoflurane 2.5%. During this brief state of anesthesia, the rats were administered IP Inactin 100 mg/kg to maintain anesthesia. An oxygen mask was used until the end of the experiment. The carotid artery was cannulated for arterial pressure measurements and the right jugular vein was cannulated for infusions. Pressures were recorded and analyzed digitally (Sonometrics, London, Ontario, Canada). Via a small incision in the lower abdominal wall, the bladder was cannulated for urine sampling. Immediately after preparation, a 30-minute equilibration period was started with intravenous inulin infusion. […] Plasma and urinary cGMP (Enzo Life Sciences) and aldosterone (DRG International, Springfield, NJ) were determined by ELISA. Inulin concentrations were measured using the anthrone method, as described elsewhere (Fuhr et al. (1955) Klin. Wochenschr 33:729-730). GFR was calculated by inulin clearance. Electrolytes were measured by flame photometry (IL943, Instrumentation Laboratory, UK). All measurements were performed according to manufacturer instructions.

SHR [2] = experiment: Acute study in SHR, renal function (GFR, urinary sodium and water excretion); conditions: Fs groups, 60 minutes, inulin clearance
Method: Acute Study Protocol in SHR: The cardiorenal and neurohumoral actions of MANP, Fs, or their combination were investigated in the genetic model of hypertension in male SHR (n=6 in each group). Rats were anesthetized in an induction chamber with inhaled Isoflurane 2.5%. During this brief state of anesthesia, the rats were administered IP Inactin 100 mg/kg to maintain anesthesia. An oxygen mask was used until the end of the experiment. The carotid artery was cannulated for arterial pressure measurements and the right jugular vein was cannulated for infusions. Pressures were recorded and analyzed digitally (Sonometrics, London, Ontario, Canada). […]
Neurohormonal and Electrolyte Analysis: Plasma ANP was measured by radioimmunoassay (Phoenix Pharmaceuticals) as an assessment of MANP, as the ANP RIA fully detects MANP (Burnett et al. (1986) Science 231(4742):1145-1147). Plasma and urinary cGMP (Enzo Life Sciences) and aldosterone (DRG International, Springfield, NJ) were determined by ELISA. Inulin concentrations were measured using the anthrone method, as described elsewhere (Fuhr et al. (1955) Klin. Wochenschr 33:729-730). GFR was calculated by inulin clearance. Electrolytes were measured by flame photometry (IL943, Instrumentation Laboratory, UK). […]
(§1) Statistical Analysis: Values are expressed as mean±standard error of mean (SEM). […]

SHR [3] = experiment: Acute study in SHR, systemic hemodynamics (arterial BP); conditions: all three doses of Fs (1, 5, 10 mg/kg IV bolus)
Method: Acute Study Protocol in SHR: The cardiorenal and neurohumoral actions of MANP, Fs, or their combination were investigated in the genetic model of hypertension in male SHR (n=6 in each group). Rats were anesthetized in an induction chamber with inhaled Isoflurane 2.5%. During this brief state of anesthesia, the rats were administered IP Inactin 100 mg/kg to maintain anesthesia. An oxygen mask was used until the end of the experiment. The carotid artery was cannulated for arterial pressure measurements and the right jugular vein was cannulated for infusions. Pressures were recorded and analyzed digitally (Sonometrics, London, Ontario, Canada). Via a small incision in the lower abdominal wall, the bladder was cannulated for urine sampling.
Immediately after preparation, a 30-minute equilibration period was started with intravenous inulin infusion. […] After baseline measurements, rats were randomly assigned to ten groups: • Group 1—treated with MANP100; • Group 2—treated with MANP300; • Group 3—treated with MANP600; • Group 4—treated with Fs1; • Group 5—treated with Fs5; • Group 6—treated with Fs10; • Group 7—treated with MANP300+Fs5; • Group 8—treated with MANP300+Fs10; • Group 9—treated with MANP600+Fs10; and • Group 10—treated with inulin, normal saline, or inulin and normal saline. […]
as §1

[4] = tested on: spontaneously hypertensive rats (SHR); experiment: Individual and combined effects of MANP and Fs on BP and aldosterone in spontaneously hypertensive rats (Example 1); conditions: for Mean arterial pressure (MAP) Δ: 60 minute period, mean±SD

- levels of aldosterone compared to the control, MANP100 and MANP300 groups (SHR [1]): significantly higher
- GFR compared to the no treatment control groups (SHR [2]): significantly lower
Structure (SMILES): NS(=O)(=O)c1cc(C(=O)O)c(NCc2ccco2)cc1Cl [Fs, furosemide]
- BP compared with controls (SHR [3]): significantly reduced
- Mean arterial pressure (MAP) Δ ([4]; Fs1: 1 mg/kg Fs single bolus): −40±9 mmHg
- Mean arterial pressure (MAP) Δ ([4]; Fs5: 5 mg/kg Fs single bolus): −55±8 mmHg
- Mean arterial pressure (MAP) Δ ([4]; Fs10: 10 mg/kg Fs single bolus): −63±11 mmHg
- urinary flow ([4]; Fs, MANP and Fs+MANP groups, p<0.05): enhanced
